# Assay results published in article PMC9500038, “A fungal tolerance trait and selective inhibitors proffer HMG-CoA reductase as a herbicide mode-of-action” (Nature Communications, 2022).
# Entries after “also recorded” stand apart in the source; their conditions may differ.
# Legend:
# AtHMG1-L558T = target: T1, AtHMG1-L558T (Arabidopsis thaliana, UniProt P14891, L558T); experiment: biochemical; format: biochemical; conditions: for AtHMG1-L558T activity in the presence of statin: 500 nM, in comparison to wild-type
# T1 construct: AtHMG1 (Uniprot P14891, At1g76490, residues 121–592); His6 (N); TEV cleavage site (N); made in house; host or cells: E. coli T7 SHuffle Express
# Description: (§1) AtHMG1 described above and human HMGR (HsHMGCR, Uniprot P04035, residues 441–888, cloned as above) were purified as above, and activity was determined by spectrophotometric measurement of the decrease in absorbance at 340 nm that occurs with NADPH oxidation in the presence of substrate HMG-CoA (Sigma-Aldrich). Reactions were performed with an assay buffer consisting of 150 mM sodium chloride, 5 mM dithiothreitol, 50 mM HEPES pH 7.4 and 2% DMSO. For kinetics determinations, a final concentration of 150 nM enzyme was incubated at 37 °C in 300 μM NADPH and different concentrations of HMG-CoA. Non-linear regression analysis was performed with GraphPad Prism 9 by plotting the initial reaction rates, v0, interpolated from a standard curve against the substrate concentration. The Michaelis–Menten constant, Km, was determined by fitting the data with a Michaelis–Menten equation and values for kcat were calculated by dividing Vmax by the molar enzyme concentration. To calculate relative specific activity, 500 nM of test compounds were pre-incubated at 37 °C with enzyme and 300 μM NADPH for 15 min before adding HMG-CoA to 200 μM. Resultant values were background subtracted and normalised to the average of the no-inhibitor control. For IC50 determinations, the same protocol was used, but varying inhibitor concentrations. Rosuvastatin data were plotted with a four-parameter (WT), and normalised response (L558T) non-linear regression model and atorvastatin and analogues were plotted with a normalised response with variable slope non-linear regression model.
# AtHMG1 = target: T2, AtHMG1 (Arabidopsis thaliana, UniProt P14891); experiment: biochemical; format: biochemical; conditions: for IC50: wild-type AtHMG1, in vitro; for selectivity for AtHMG1 in vitro (dose-response): inhibition profiles AtHMG1 versus HsHMGCR
# T2 construct: AtHMG1 (Uniprot P14891, At1g76490, residues 121–592); His6 (N); TEV cleavage site (N); made in house; host or cells: E. coli T7 SHuffle Express
# Description: An E. coli codon-optimised DNA sequence encoding the conserved […] region of AtHMG1 (Uniprot P14891, At1g76490, residues 121–592) was cloned into pQE30 (Qiagen) following an N-terminal His6-tag and tobacco etch virus cleavage site. The protein was expressed in the T7 SHuffle Express strain of E. coli (New England Biolabs) transformed with pREP4 (Qiagen) with the proteins expressed and purified as previously described. Briefly, cultures were grown in lysogeny broth containing 100 μg/mL ampicillin and 35 μg/mL kanamycin at 30 °C to an OD600 of 0.8–1.0. Cells were cooled to 16 °C before the expression was induced with 0.1 mM isopropyl β-D-1-thiogalactopyranoside. Following overnight culture, cells were harvested by centrifugation and lysed by ultrasonication in 100 mM HEPES (pH 7.5), 150 mM sodium chloride, 5 mM dithiothreitol, 0.1% Triton X-100. Lysed cells were then centrifuged (15,000×g) and the supernatant was incubated in 30 mL batches with Ni-NTA resin overnight at 4 °C. The resin was then washed with 50 mL of 100 mM HEPES (pH 7.5), 150 mM sodium chloride, 5 mM dithiothreitol followed by 50 mL of 100 mM HEPES (pH 7.5), 150 mM sodium chloride, 5 mM dithiothreitol, 20 mM imidazole. The protein was then eluted with 50 mL of 100 mM HEPES (pH 7.5), 150 mM sodium chloride, 5 mM dithiothreitol, 300 mM imidazole. Eluted protein was concentrated with a 30 kDa centrifugal filter unit (Millipore) and purified by size-exclusion chromatography (HiLoad 16/600 Superdex 200) in 100 mM HEPES (pH 7.5), 150 mM sodium chloride, 5 mM dithiothreitol. The protein was assessed for purity by SDS-PAGE, and protein concentration was determined by spectrophotometry.
# as §1
# HsHMGCR = target: T3, HsHMGCR (Homo sapiens, UniProt P04035); experiment: In vitro HMGR assay (NADPH depletion), HsHMGCR; format: biochemical
# T3 construct: HsHMGCR, Uniprot P04035, residues 441–888; His6 (N); TEV cleavage site (N); made in house; host or cells: E. coli T7 SHuffle Express (by 'cloned as above ... purified as above')
# T3 sequence (P04035 441-888): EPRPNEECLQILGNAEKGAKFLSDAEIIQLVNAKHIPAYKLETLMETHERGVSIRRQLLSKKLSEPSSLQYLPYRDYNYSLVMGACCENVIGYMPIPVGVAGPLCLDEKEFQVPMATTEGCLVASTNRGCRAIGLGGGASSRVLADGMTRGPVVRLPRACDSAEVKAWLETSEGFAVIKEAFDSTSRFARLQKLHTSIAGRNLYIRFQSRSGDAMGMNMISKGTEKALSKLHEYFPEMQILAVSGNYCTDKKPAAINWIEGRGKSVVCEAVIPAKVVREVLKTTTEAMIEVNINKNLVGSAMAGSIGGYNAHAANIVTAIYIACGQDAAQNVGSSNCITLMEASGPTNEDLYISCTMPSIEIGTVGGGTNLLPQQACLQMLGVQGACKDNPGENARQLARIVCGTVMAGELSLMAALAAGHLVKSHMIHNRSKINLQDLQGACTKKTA
# Description: as §1, with “Rosuvastatin data were plotted with a four-parameter (WT), and normalised response (L558T) non-linear regression model and atorvastatin and analogues were plotted with a normalised response with variable slope non-linear regression model.” left out
# A. thaliana = experiment: Herbicidal activity assay on soil, pre- and post-emergence; format: in vivo, Arabidopsis thaliana; conditions: for herbicidal activity: pre- and post-emergence
# Description: Approximately 30 seeds of A. thaliana (accession Col-0) or E. tef were sown in 63 × 63 × 59 mm pots of Irish peat (Bord na Móna Horticulture Ltd, Newbridge, Ireland). Seeds were incubated in the dark for 3 days at 4 °C to synchronise germination. A single pre-emergence treatment (day 0) was performed when these seeds were transferred to a growth room at 22 °C with a 16:8 h light:dark photoperiod and 60% relative humidity. Two post-emergence treatments were performed following emergence of the seedlings (day 1) at days 4 and 7. Plants were watered accordingly throughout the experiment to maintain adequate moisture and photographed on day 16. Treatments were conducted with rosuvastatin, simvastatin, fluvastatin, atorvastatin (AK Scientific), pravastatin (BOC Sciences), lovastatin (Sapphire Bioscience), mevastatin, pitavastatin (Focus Bioscience), glyphosate, RoundUp® and atorvastatin analogues (1–9). To treat, 0.5 mL of each compound in a final concentration of 2% dimethyl sulfoxide (DMSO) and 0.02% Brushwet (SST Dandenong, Australia) was pipetted onto seedlings. Full experimental details and characterisation of atorvastatin analogue 1–9 synthesis can be found in Supplementary Method 1 and Supplementary Figs. 7–62. Growth inhibition was quantified by detecting green pixels for healthy seedlings using ImageJ (National Institutes of Health, 1.53 v) and the ‘Threshold Colour’ plug-in with the following settings: hue 50–110, saturation 125–255, brightness 30–255[67]. Images were converted into 8-bit format, and pixels measured over the same area. Data were normalised to a negative control to provide percentage inhibition.
# [1] = test system: wild-type (WT) A. thaliana; experiment: In planta statin resistance assay, non-transformed WT; format: in vivo; conditions: Arabidopsis thaliana; growth medium, green pixels; read-out: IC50 growth inhibition, non-transformed WT
# Description: (§2) DNA encoding the full-length AtHMG1 protein (Uniprot P14891, residues 1–592) and the corresponding L558T mutant were cloned into a derivative of the pMDC43 binary vector[75] to yield 35 S::AtHMG1 and 35 S::AtHMG1-L558T transgenes, respectively. These constructs were then introduced into Agrobacterium tumefaciens strain LBA4404 and separately used to transform A. thaliana by the floral dip method[76],[77]. Seeds (T0/1) of transformed plants were collected and surface sterilised using 600 µL 70% ethanol, 750 µL 100% ethanol and soaked in 800 µL 50% bleach for 8 min, before washing with 800 µL sterile water and resuspension with 0.1% agar. Selection was performed on 30 µg/mL hygromycin growth medium (1% agar, 1% glucose, 0.45% Murashige & Skoog salts with vitamins, 0.3% 2-(N-morpholino)-ethanesulfonic acid (MES) (v/v), pH 5.7) in a growth room at 22 °C with 16:8 h light:dark photoperiod and 60% relative humidity. Surviving plants were transferred to 63 ×63 × 59 mm pots of Irish peat and grown to maturity in the same growth conditions. Seeds from plants with an adequate seed yield were then sterilised and selected again as described above with 30 µg/mL hygromycin growth medium. […] Plates were sealed with porous tape and grown for a minimum of 10 days with the growth conditions described above. Plates were then imaged, and growth quantified using ImageJ as described above. […]
# [2] = test system: 35 S::AtHMG1 A. thaliana lines; experiment: In planta statin resistance assay, 35 S::AtHMG1 lines; format: in vivo; conditions: Arabidopsis thaliana; 19 T2 lines combined; read-out: IC50 growth inhibition, 35 S::AtHMG1 lines
# Description: as §2
# [3] = test system: 35 S::AtHMG1-L558T A. thaliana lines; format: in vivo, Arabidopsis thaliana
# Description: DNA encoding the full-length AtHMG1 protein (Uniprot P14891, residues 1–592) and the corresponding L558T mutant were cloned into a derivative of the pMDC43 binary vector[75] to yield 35 S::AtHMG1 and 35 S::AtHMG1-L558T transgenes, respectively. These constructs were then introduced into Agrobacterium tumefaciens strain LBA4404 and separately used to transform A. thaliana by the floral dip method[76],[77]. Seeds (T0/1) of transformed plants were collected and surface sterilised using 600 µL 70% ethanol, 750 µL 100% ethanol and soaked in 800 µL 50% bleach for 8 min, before washing with 800 µL sterile water and resuspension with 0.1% agar. Selection was performed on 30 µg/mL hygromycin growth medium (1% agar, 1% glucose, 0.45% Murashige & Skoog salts with vitamins, 0.3% 2-(N-morpholino)-ethanesulfonic acid (MES) (v/v), pH 5.7) in a growth room at 22 °C with 16:8 h light:dark photoperiod and 60% relative humidity. Surviving plants were transferred to 63 ×63 × 59 mm pots of Irish peat and grown to maturity in the same growth conditions. Seeds from plants with an adequate seed yield were then sterilised and selected again as described above with 30 µg/mL hygromycin growth medium. […] Plates were sealed with porous tape and grown for a minimum of 10 days with the growth conditions described above. Plates were then imaged, and growth quantified using ImageJ as described above. Total green pixels were normalised against negative controls for the respective lines (2% DMSO and water) to provide percentage inhibition. […] Growth inhibition at varying concentrations of hygromycin and rosuvastatin were plotted with a four-parameter non-linear regression model using GraphPad Prism 9.
# T2 sequence (P14891 121-592): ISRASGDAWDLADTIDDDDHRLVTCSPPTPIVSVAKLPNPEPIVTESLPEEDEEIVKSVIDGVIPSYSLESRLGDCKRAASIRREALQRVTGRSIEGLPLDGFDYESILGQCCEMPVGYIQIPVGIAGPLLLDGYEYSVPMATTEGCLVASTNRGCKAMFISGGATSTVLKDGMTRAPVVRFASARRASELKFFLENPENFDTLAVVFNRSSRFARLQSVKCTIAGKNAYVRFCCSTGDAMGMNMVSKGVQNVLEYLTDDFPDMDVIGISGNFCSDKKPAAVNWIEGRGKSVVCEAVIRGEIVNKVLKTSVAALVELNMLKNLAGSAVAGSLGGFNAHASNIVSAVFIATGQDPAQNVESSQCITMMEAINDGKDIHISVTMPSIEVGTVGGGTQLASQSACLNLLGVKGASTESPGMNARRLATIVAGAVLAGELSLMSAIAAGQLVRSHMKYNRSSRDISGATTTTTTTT
# T1 sequence (P14891 121-592 L558T): as the sequence (P14891 121-592) above, with L438T counted along it
structure (smiles),measurement,setting,value
CC[C@H](C)C(=O)O[C@H]1CCC=C2C=C[C@H](C)[C@H](CC[C@@H]3C[C@@H](O)CC(=O)O3)[C@H]21 [mevastatin],AtHMG1-L558T activity in the presence of statin,AtHMG1-L558T,retained activity
O=C(O)C[C@H](O)C[C@H](O)CCn1c(-c2ccc(F)cc2)c(-c2ccccc2)c(C(=O)Nc2ccccc2)c1C1CCC1 [compound 7],specificity for AtHMG1 over HsHMGCR,"AtHMG1; in vitro, from IC50 dose-response curves",> 20 fold
same,selectivity in vitro for AtHMG1 over HsHMGCR,AtHMG1; initial screen at 500 nM,selective; also recorded: preference for AtHMG1 over HsHMGCR
same,IC50,AtHMG1,32 nM
same,IC50,HsHMGCR,890 nM
same,herbicidal activity,A. thaliana,retained herbicidal activity
CC[C@H](C)C(=O)O[C@H]1C[C@@H](C)C=C2C=C[C@H](C)[C@H](CC[C@@H]3C[C@@H](O)CC(=O)O3)[C@H]21 [lovastatin],AtHMG1-L558T activity in the presence of statin,AtHMG1-L558T,retained activity
O=C(O)C[C@H](O)C[C@H](O)/C=C/c1c(C2CC2)nc2ccccc2c1-c1ccc(F)cc1 [pitavastatin],AtHMG1-L558T activity in the presence of statin,AtHMG1-L558T,retained activity
CC[C@H](C)C(=O)O[C@H]1C[C@H](O)C=C2C=C[C@H](C)[C@H](CC[C@@H](O)C[C@@H](O)CC(=O)O)[C@H]21 [pravastatin],AtHMG1-L558T activity in the presence of statin,AtHMG1-L558T,retained activity
CC(C)c1c(C(=O)Nc2ccccc2)c(-c2ccccc2)c(-c2ccc(F)cc2)n1CC[C@@H](O)C[C@@H](O)CC(=O)O [atorvastatin],selectivity for AtHMG1 in vitro (dose-response),AtHMG1,not selective
same,AtHMG1-L558T activity in the presence of statin,AtHMG1-L558T,retained activity
O=C(O)C[C@H](O)C[C@H](O)CCn1c(-c2ccc(F)cc2)c(-c2ccccc2)c(C(=O)Nc2ccccc2)c1C1CCCC1 [compound 8],selectivity for AtHMG1 in vitro (dose-response),AtHMG1,not selective
CC(C)c1nc(N(C)S(C)(=O)=O)nc(-c2ccc(F)cc2)c1/C=C/[C@@H](O)C[C@@H](O)CC(=O)O [rosuvastatin],IC50,[1],3000 nM
same,IC50,AtHMG1,53 nM
same,IC50,[2],46000 nM
same,herbicidal activity,A. thaliana,most herbicidal statin
same,concentration lethal to A. thaliana,"A. thaliana; rosuvastatin without formulation beyond a wetting agent, Roundup formulated, same conditions",~ 15 μM
same,35 S::AtHMG1-L558T lines less sensitive to treatment than 35 S::AtHMG1 lines,"[3]; 80 µM versus 5 µM, compared to untreated WT",up to 16 fold
same,resistance of 35 S::AtHMG1-L558T lines versus 35 S::AtHMG1 lines,[3]; in planta,over sixfold more resistant
same,resistance of 35 S::AtHMG1-L558T lines versus non-transformed WT,[3]; in planta,more than 100 fold
same,IC50,AtHMG1-L558T,> 1000 nM
same,AtHMG1-L558T activity in the presence of statin,AtHMG1-L558T,retained activity
same,resistance of AtHMG1-L558T versus WT in vitro,AtHMG1-L558T; in vitro,> 20 fold
CC(C)n1c(/C=C/C(O)CC(O)CC(=O)O)c(-c2ccc(F)cc2)c2ccccc21 (stereo not shown) [fluvastatin],AtHMG1-L558T activity in the presence of statin,AtHMG1-L558T,retained activity
CCC(C)(C)C(=O)O[C@H]1C[C@@H](C)C=C2C=C[C@H](C)[C@H](CC[C@@H]3C[C@@H](O)CC(=O)O3)[C@H]21 [simvastatin],AtHMG1-L558T activity in the presence of statin,AtHMG1-L558T,retained activity
